Assay [1] relates to 3T3 Swiss fibroblast monolayers. The assay is described as follows: Scratch wound closure in vitro. The assay is classed as cell-based, mouse. Particulars: for Scratch wound closure at 5 μM, % of control: 12 h (Table 6); for Wound Closure (% over control): 10 μM, 12 h (Table 4). The method, then:
3T3 fibroblasts were seeded into 24-well dishes at a concentration of 3×10^5 cells/ml and cultured to nearly confluent cell monolayers. On the day of the experiment, a linear wound was generated in the monolayer with a sterile 100 μl plastic pipette tip and any cellular debris was removed by washing cells once with sterile PBS. Fresh DMEM medium containing vehicle (0.1% ethanol), positive control (0.5% FBS), or various concentrations of the fractions, sub-fractions or pure compounds was added to a set of 3 wells per dose and incubated for 12 h at 37° C. with 5% CO2. Cells were then visualized with 20 μl of 10% methylene blue in PBS for 5 min. Three representative images of the scratched areas from each well were photographed at 0 and 12 h to estimate the scratch wound closure. Images were analyzed using ImageJ program (NIH, Bethesda, Md.) and % wound closure was calculated relative to vehicle control and was reported as wound closure % over control (Table 4). 3T3 Swiss fibroblast were seeded into 24-well tissue culture at a concentration of 3×10^5 cells/ml and cultured to nearly confluent cell monolayers. Then, a linear wound was generated in the monolayer with a sterile 100 μl plastic pipette tip. Any cellular debris was removed by washing with PBS. DMEM medium with vehicle (0.1% ethanol), FBS (1%, positive control), or various concentrations of brassinosteroids were added to a set of 3 wells per dose and incubated for 12 h at 37° C. with 5% CO2. Cells were visualized in 10% methylene blue for 5 minutes. Three representative images from each well of the scratched areas under each condition were photographed to estimate the relative migration of cells at 0 and 12 h post-treatment. Data were analyzed using ImageJ software available online from the National Institutes of Health (rsbweb.nih.gov/ij/) by calculating the percentage of scratch closure at each dose point relative to control.

For another assay, the system named is L6 rat myotubes. The assay can be described thus: Protein degradation, release of acid-soluble [3H]-phenylalanine. The assay is classed as cell-based. The note with it: 10 μM; for Protein degradation (% decrease over control): 4 h. The method, then:
In some aspects, cell culture experiments were carried out. Rat L6 skeletal muscle cell line CRL-1458 was obtained from ATCC (Manassas, Va.). Myoblasts were routinely maintained in Dulbecco's modified Eagle's medium (DMEM) containing 10% FBS and 0.1% penicillin-streptomycin at 37° C. and 5% CO2. Cells were subcultured into 24-well plates for protein synthesis, degradation, and cell viability studies and into 6-well plates for Western blot analyses (Greiner Bio One, Monroe, N.C.). Once cells reached 90% confluence, differentiation was induced by lowering the serum concentration to 2%, and medium was changed every 2 days. […] NIH 3T3 murine embryonic fibroblast cell line (ATCC #CCL-92) was maintained in DMEM and 10% FBS at 37° C. in 5% CO2, and passaged every 3-4 days.
In various aspects, protein degradation is measured to determine the effect of brassinosteroid on a particular protein. All known methods for measuring protein degradation are included in the methods of the disclosure. The effect of brassinosteroids on protein degradation was investigated in fully differentiated myotubes as described by Fawcett et al. (Arch. Biochem. Biophys. 385:357-363, 2001) with slight modifications. Fully differentiated myotubes were incubated for 16 h to allow labeling of cellular proteins with 1.5 μCi/mL [^3H]-phenylalanine. […] The incubation was stopped by placing the cells on ice, and protein in the medium was precipitated with 5% trichloroacetic acid. Specific radioactivity of protein-free phenylalanine was quantified using liquid scintillation counter LS 6500 (Beckman Coulter, Fullerton, Calif.) and normalized to mg of total cell protein determined by BCA protein assay (Pierce Biotechnology, Rockford, Ill.).
The bioactivity of HB and its analogs (as shown in Table 3) were also evaluated by measuring decreases in protein degradation in the L6 rat skeletal muscle cells in vitro. Cells were labeled overnight with [^3H]-phenylalanine and subsequently treated for 4 h in triplicate with vehicle (0.1% ethanol) or test compound (10 μM), and protein degradation was assessed as release of acid-soluble [^3H]-phenylalanine into the media normalized by total protein (Table 3).

These results are taken from patent US20140128357A1, “METHODS OF PRODUCING AND USING BRASSINOSTEROIDS TO PROMOTE GROWTH, REPAIR AND MAINTENANCE OF SKELETAL MUSCLE AND SKIN” (Rutgers University, priority 2010, published 2014).

The structures appear in SMILES notation.

For the compound `CC[C@@H](C(C)C)[C@H](O)[C@@H](O)[C@@H](C)[C@H]1CC[C@H]2[C@@H]3COC(=O)[C@H]4C[C@H](O)[C@H](O)C[C@]4(C)[C@H]3CC[C@]12C` [Compound 1, (22S,23S,24S)-2α,3α,22,23-tetrahydroxy-24 ethyl-β-homo-7-oxo-5α-cholestane-6-one], in assay [1], the “Scratch wound closure at 5 μM, % of control” value is on record as 30 ± 4.2 % and the “Wound Closure (% over control)” value was 30.2 ± 11.2 %. In addition, in assay [1] (listed as HB), the “Scratch wound closure at 5 μM, % of control” value was determined as 30±4.2%. Also, the “Protein degradation (% decrease over control)” value in the assay with L6 rat myotubes is recorded as −24.1 ± 5.5 %. For the same compound, the “decrease in protein degradation vs control levels” value in the assay with L6 rat myotubes (4 h (FIG. 2C)) came to 9.5±0.9%.
With `CC[C@@H](C(C)C)[C@H](O)[C@@H](O)[C@@H](C)[C@H]1CC[C@H]2[C@@H]3CC(=O)[C@H]4C[C@H](O)[C@H](O)C[C@]4(C)[C@H]3CC[C@]12C` [Compound 2, (22S,23S,24S)-2α,3α, 22,23-tetrahydroxy-24-ethyl-5α-cholestan-6-one], in assay [1], the “Scratch wound closure at 5 μM, % of control” value worked out at 32.9 ± 4.1 % and the “Wound Closure (% over control)” value is recorded as 32.9 ± 14.1 %. Moreover, in the assay with L6 rat myotubes, the “Protein degradation (% decrease over control)” value was −23.1 ± 4.2 %.
On to `CC[C@@H](C(C)C)[C@H](O)[C@@H](O)[C@@H](C)[C@H]1CC[C@H]2[C@@H]3CC(=O)N[C@H]4C[C@H](O)[C@H](O)C[C@]4(C)[C@H]3CC[C@]12C` [Compound 5, (22S,23S,24S)-2α,3α-22,23-tetrahydroxy-24-ethyl-B-homo-6-aza-5α-cholestan-7-one], for which the “Scratch wound closure at 5 μM, % of control” value in assay [1] stood at 13.0 ± 0.7%. The “fibroblast migration activity in words” value in assay [1] (0.1-10 μM, 12 h) was “no effect on fibroblast migration”. Besides, in the assay on L6 rat myotubes, the “effect of structural modification on protein degradation activity, in words” value is recorded as “only a minor effect on its biological activity” and the “Protein degradation (% decrease over control)” value is −13.6 ± 3.8%.
